Data as given in patent publication US6569839B1, “Fast-acting pharmaceutical compositions and methods of use” (priority 1998, dated 2003).

Tests used:
[1] = 1 gm interoperatively; total hip or knee joint replacements; 95% without steroid; cited from earlier work
[2] = 0.5%, continuous perineural infusion around the major nerve; cited from earlier work
[3] = 1000 units of Heparin with 1 gm of Cefazolin; cited from earlier work
[4] = in vivo
[5] = I.V. every 90 minutes; cited from earlier work
[6] = 50 to 100 mg I.V. over a 40 to 120 second period; cited from earlier work
[7] = system: gram negative organisms and many gram positive organisms which include staphylococcus aureus and staphylococcus epidermidis; conditions: cited from earlier work
[8] = Absorption of antibiotic from the treated wound; assay type: in vivo; conditions: administered to the wound over 24 hour period
Protocol: In an embodiment of the present invention, a medicinal solution comprising Chloramphenicol can be prepared such that the patient receives only about 1-½ gm in a 24 hour period. Thus, if 100% was absorbed during the 24 hour period while treating a wound as, for example, following a total knee arthroplasty, the administered 1 ½ gm over a 24 hour is a safe dose, in fact, for three days. Since, however, only approximately 40% of the antibiotic is typically absorbed, the amount that is available to the bone marrow is, thus, very small. For patients with blood dyscrasias a dose of about 2 gm of Cephalosporin or a dose of about 1 gm Septaz can be used in place of a dose of about 1 g of Chloramphenicol for the 24 hour period.

[9] = system: common bone and joint infections; conditions: cited from earlier work

## C[C@H]1C[C@@H]2[C@H]([C@@H](O)C[C@@]3(C)[C@H]2CC[C@]3(O)C(=O)COC(=O)CCC(=O)O)[C@@]2(C)C=CC(=O)C=C12 [Solumedrol]
[1]
  patients who experienced pain with interoperative steroid administration: 33%

## CCCCN1CCCCC1C(=O)Nc1c(C)cccc1C (centres unmarked) [Bupicocaine]
[2]
  relief of pain: good relief of pain

## C[C@]12CCC(=O)C=C1CC[C@@H]1[C@@H]2[C@@H](O)C[C@@]2(C)[C@H]1CC[C@]2(O)C(=O)COC(=O)CCC(=O)O [Solu-Cortef, Hydrocortisone sodium succinate]
[1]
  patients who experienced pain with interoperative steroid administration: 33%

## Cc1nnc(SCC2=C(C(=O)O)N3C(=O)[C@@H](NC(=O)Cn4cnnn4)[C@H]3SC2)s1 [Cefazolin]
[3]
  time compatible: 24 h

## CCCCN1CCCCC1C(=O)Nc1c(C)cccc1C (centres unmarked) [Marcaine]
[4]
  complications if dosage is not strictly monitored: critical complications can occur

## CCN(CC)CC(=O)Nc1c(C)cccc1C [Lidocaine]
[5]
  maximum suggested dose: about 300 mg
[6]
  ill effects: without ill effects

## CC(C)(O/N=C(\C(=O)N[C@@H]1C(=O)N2C(C(=O)[O-])=C(C[n+]3ccccc3)CS[C@H]12)c1csc(N)n1)C(=O)O [Ceftazidime]
[7]
  Bacterial coverage: very good

## O=C(N[C@H](CO)[C@H](O)c1ccc([N+](=O)[O-])cc1)C(Cl)Cl [Chloramphenicol]
[8]
  fraction of the antibiotic typically absorbed: approximately 40%
[9]; against the common bone and joint infections
  effectiveness as broad-spectrum antibiotic: very effective
[9]; in vivo
  reported blood toxicity: aplastic anemia and other blood problems
